Assay [1] concerns the target T1, human recombinant 5-HT2A receptor (Homo sapiens, UniProt P28223).
T1 construct: expressed in transfected cells; host or cells: NIH3T3
The experiment in a line: Affinity for 5-HT2A receptor binding sites (competitive radioligand binding, [3H]ketanserin). As to conditions: membranes of NIH3T3 with h5-HT2A, * = tested as hydrochloride salt. As for the experimental part:
(§1) Stock drug solutions (10 mM) were prepared in DMSO (the final assay concentration of DMSO not exceeding 0.4%). Drug dilutions were prepared in assay buffer.
(§2) Sigmoidal inhibition curves were generated and fitted by nonlinear regression analysis (GraphPad Prism).
(§3) 2. Affinity for 5HT2 Receptor Binding Sites
(§4) Receptor binding was performed using the human recombinant 5-HT2A (GB: X57830), 5-HT2B (GB: Z36748) and 5-HT2C (GB: M81778) receptors. The affinity of the compounds for the 3 different human 5-HT2 receptor subtypes was evaluated by competitive radioligand binding assays using [^3H]ketanserin (h5-HT2A) or [^3H]mesulergine (h5-HT2B and h5-HT2C). The assays were performed on membranes prepared from NIH3T3 stably transfected with h5-HT2A or CHO stably transfected with h5-HT2B and h5-HT2C.

The target of assay [2] is T2, human recombinant 5-HT2B receptor (Homo sapiens, UniProt P41595).
T2 construct: expressed in transfected cells; host or cells: CHO
T2 sequence (P41595 whole entry): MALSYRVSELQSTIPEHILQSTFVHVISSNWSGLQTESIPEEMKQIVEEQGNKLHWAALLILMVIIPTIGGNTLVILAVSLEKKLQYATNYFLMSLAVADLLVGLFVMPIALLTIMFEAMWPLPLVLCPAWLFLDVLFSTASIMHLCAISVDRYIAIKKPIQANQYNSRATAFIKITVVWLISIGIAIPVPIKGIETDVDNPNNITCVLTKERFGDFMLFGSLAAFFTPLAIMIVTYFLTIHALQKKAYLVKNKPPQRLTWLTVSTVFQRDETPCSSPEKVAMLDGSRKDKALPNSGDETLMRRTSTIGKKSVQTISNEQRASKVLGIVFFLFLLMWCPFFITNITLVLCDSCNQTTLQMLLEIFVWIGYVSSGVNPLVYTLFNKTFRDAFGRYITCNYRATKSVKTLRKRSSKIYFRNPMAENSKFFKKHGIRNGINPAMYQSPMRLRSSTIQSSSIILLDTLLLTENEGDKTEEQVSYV
The experiment in a line: Affinity for 5-HT2B receptor binding sites (competitive radioligand binding, [3H]mesulergine). As to conditions: membranes of CHO with h5-HT2B, * = tested as hydrochloride salt. As for the experimental part:
as §1, §2, §3, §4

Assay [3] concerns the target T3, human recombinant 5-HT2C receptor (Homo sapiens, UniProt P28335).
T3 construct: expressed in transfected cells; host or cells: CHO
T3 sequence (P28335 33-458): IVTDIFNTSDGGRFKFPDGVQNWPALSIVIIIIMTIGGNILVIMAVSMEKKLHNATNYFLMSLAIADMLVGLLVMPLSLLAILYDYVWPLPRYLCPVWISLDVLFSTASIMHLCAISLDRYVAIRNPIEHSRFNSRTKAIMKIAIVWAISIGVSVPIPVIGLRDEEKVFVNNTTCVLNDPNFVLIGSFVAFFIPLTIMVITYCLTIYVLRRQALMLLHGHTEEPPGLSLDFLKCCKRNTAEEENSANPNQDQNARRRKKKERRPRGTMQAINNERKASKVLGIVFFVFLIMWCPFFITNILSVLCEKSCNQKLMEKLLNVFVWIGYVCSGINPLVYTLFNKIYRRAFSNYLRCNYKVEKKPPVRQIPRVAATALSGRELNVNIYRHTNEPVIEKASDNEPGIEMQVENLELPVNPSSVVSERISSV
The experiment in a line: Affinity for 5-HT2C receptor binding sites (competitive radioligand binding, [3H]mesulergine). The conditions noted are these: membranes of CHO with h5-HT2C, * = tested as hydrochloride salt. As for the experimental part:
as §1, §2, §3, §4

For assay [4], the target named is T4, human recombinant 5-HT6 receptor (Homo sapiens, UniProt P50406).
T4 construct: expressed in transfected cells; host or cells: HEK-293
T4 sequence (P50406 whole entry): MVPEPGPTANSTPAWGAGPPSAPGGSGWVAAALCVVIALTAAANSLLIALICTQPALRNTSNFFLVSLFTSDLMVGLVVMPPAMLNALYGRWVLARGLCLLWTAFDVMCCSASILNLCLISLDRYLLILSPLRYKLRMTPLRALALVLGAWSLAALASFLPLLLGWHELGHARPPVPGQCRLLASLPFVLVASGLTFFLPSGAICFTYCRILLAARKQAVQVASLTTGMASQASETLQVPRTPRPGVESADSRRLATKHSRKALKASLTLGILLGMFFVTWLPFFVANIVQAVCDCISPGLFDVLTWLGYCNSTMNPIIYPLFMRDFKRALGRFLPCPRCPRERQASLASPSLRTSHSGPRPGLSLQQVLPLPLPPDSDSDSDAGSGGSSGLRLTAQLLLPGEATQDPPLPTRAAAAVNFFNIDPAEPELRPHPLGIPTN
Put plainly: Affinity for 5-HT6 receptor binding sites (competitive radioligand binding, [3H]LSD). As to conditions: membranes of HEK-293 with h5-HT6, * = tested as hydrochloride salt. As for the experimental part:
as §1, §2
3. Affinity for 5-HT6 Receptor Binding Sites
Receptor binding was performed using the human recombinant 5-HT6 (GB: BC0794995) receptor. The affinity of the compounds for the human 5-HT6 receptor was evaluated by competitive radioligand binding assays using [^3H]LSD. The assays were performed on membranes prepared from HEK-293 stably transfected with h5-HT6. Non-specific binding was estimated in the presence of 1 μM clozapine.

The Ki is a measure of affinity in units of concentration, obtained from inhibition or displacement.

T1 sequence (P28223 whole entry): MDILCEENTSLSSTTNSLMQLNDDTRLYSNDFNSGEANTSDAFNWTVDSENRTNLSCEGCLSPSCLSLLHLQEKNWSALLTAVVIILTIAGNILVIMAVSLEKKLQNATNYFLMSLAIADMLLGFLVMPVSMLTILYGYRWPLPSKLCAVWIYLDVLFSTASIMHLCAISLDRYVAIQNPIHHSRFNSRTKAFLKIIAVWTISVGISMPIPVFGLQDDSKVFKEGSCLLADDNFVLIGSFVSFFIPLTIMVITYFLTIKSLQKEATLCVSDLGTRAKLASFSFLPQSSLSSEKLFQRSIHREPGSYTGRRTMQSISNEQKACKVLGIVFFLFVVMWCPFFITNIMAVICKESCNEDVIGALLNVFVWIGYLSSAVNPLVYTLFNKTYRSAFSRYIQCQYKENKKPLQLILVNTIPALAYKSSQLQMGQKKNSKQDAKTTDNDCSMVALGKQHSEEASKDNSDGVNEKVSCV

Regarding `Cc1ccc(-c2nc(N3CCCC3C)nc3c2CCNCC3)cc1` (centres unmarked) [Example 72, 6,7,8,9-tetrahydro-4-(4-methylphenyl)-2-(2-methyl-1-pyrrolidinyl)-5H-pyrimido[4,5-d]azepine], the Ki in assay [1] came out at 0.028 µM; in assay [2], 0.002 µM; in assay [3], 0.004 µM; in assay [4] it was 0.032 µM.

Regarding `C[C@H]1COCCN1c1nc2c(c(-c3ccc(Cl)cc3)n1)CCNCC2` [Example 96, 4-(4-chlorophenyl)-6,7,8,9-tetrahydro-2-[(3S)-3-methyl-4-morpholinyl]-5H-pyrimido[4,5-d]azepine], the Ki was determined as 0.1 µM in assay [1], 0.035 µM in assay [2], 0.069 µM in assay [3] and 0.013 µM in assay [4].

For the compound `Cc1ccc(-c2nc(N3[C@H](C)CCC[C@@H]3C)nc3c2CCNCC3)cc1Cl` [Example 79, 4-(3-chloro-4-methylphenyl)-2-[(2R,6S)-2,6-dimethyl-1-piperidinyl]-6,7,8,9-tetrahydro-5H-pyrimido[4,5-d]azepine], the Ki in assay [1] is 0.039 µM; in assay [2] it was 0.007 µM; in assay [3], 0.026 µM; in assay [4], 0.018 µM.

`C[C@H]1COCCN1c1nc2c(c(-c3cnc4ccccc4c3)n1)CCNCC2` [Example 95, 6,7,8,9-tetrahydro-2-[(3S)-3-methyl-4-morpholinyl]-4-(3-quinolinyl)-5H-pyrimido[4,5-d]azepine]: the Ki turned out to be 0.15 µM in assay [1], 0.58 µM in assay [2], 0.81 µM in assay [3] and 0.007 µM in assay [4].

In the case of `C[C@@H]1CCC[C@H](C)N1c1nc2c(c(-c3cnc4ccccc4c3)n1)CCNCC2` [Example 88, 2-[(2R,6S)-2,6-dimethyl-1-piperidinyl]-6,7,8,9-tetrahydro-4-(3-quinolinyl)-5H-pyrimido[4,5-d]azepine], the Ki in assay [1] worked out at 0.23 µM; in assay [2] it was 0.064 µM; in assay [3], 0.6 µM; in assay [4], 0.012 µM.

Consider `Clc1ccc(-c2nc(N3CCOCC3)nc3c2CCNCC3)cc1` [Example 58, 4-(4-Chloro-phenyl)-2-morpholin-4-yl-6,7,8,9-tetrahydro-5H-pyrimido[4,5-d]azepine], for which the Ki was found to be 0.017 µM in assay [1], 0.03 µM in assay [2], 0.02 µM in assay [3] and 0.102 µM in assay [4].

As to `Cc1ccc(-c2nc(N3CCCC3C)nc3c2CCNCC3)cc1Cl` (centres unmarked) [Example 77, 4-(3-chloro-4-methylphenyl)-6,7,8,9-tetrahydro-2-(2-methyl-1-pyrrolidinyl)-5H-pyrimido[4,5-d]azepine], the Ki stood at 0.077 µM in assay [1], 0.009 µM in assay [2], 0.033 µM in assay [3] and 0.051 µM in assay [4].

On to `C[C@@H]1CCC[C@H](C)N1c1nc2c(c(-c3ccc(OC(F)(F)F)cc3)n1)CCNCC2` [Example 90, 2-[(2R,6S)-2,6-dimethyl-1-piperidinyl]-6,7,8,9-tetrahydro-4-[4-(trifluoromethoxy)phenyl]-5H-pyrimido[4,5-d]azepine], for which, in assay [4], the Ki came out at 0.088 µM.

With `COc1ccc(-c2nc(N3CCC(F)CC3)nc3c2CCNCC3)cc1` [Example 81, 2-(4-fluoro-1-piperidinyl)-6,7,8,9-tetrahydro-4-(4-methoxyphenyl)-5H-pyrimido[4,5-d]azepine], the Ki in assay [4] is 0.083 µM.

Take `Cc1ccc(-c2nc(N3CCC(F)CC3)nc3c2CCNCC3)cc1Cl` [Example 76, 4-(3-chloro-4-methylphenyl)-2-(4-fluoro-1-piperidinyl)-6,7,8,9-tetrahydro-5H-pyrimido[4,5-d]azepine]: the Ki came to 0.038 µM in assay [1], 0.016 µM in assay [2], 0.015 µM in assay [3] and 0.039 µM in assay [4].

As for `c1ccc2ncc(-c3nc(N4CCOCC4)nc4c3CCNCC4)cc2c1` [Example 102, 2-Morpholin-4-yl-4-quinolin-3-yl-6,7,8,9-tetrahydro-5H-pyrimido[4,5-d]azepine], the Ki amounted to 0.3 µM in assay [2], 0.36 µM in assay [3] and 0.07 µM in assay [4].

For `Cc1ccc(-c2nc(N3CCS(=O)(=O)CC3)nc3c2CCNCC3)cc1` [Example 64, 2-(1,1-Dioxo-1λ^6-thiomorpholin-4-yl)-4-p-tolyl-6,7,8,9-tetrahydro-5H-pyrimido[4,5-d]azepine], the Ki in assay [1] worked out at 0.52 µM; in assay [2] it was 0.62 µM; in assay [3] it was 1.26 µM; in assay [4], 0.029 µM.

As for `Clc1ccc(-c2nc(N3CCOCC3)nc3c2CNCCC3)cc1` [Example 57, 4-(4-Chloro-phenyl)-2-morpholin-4-yl-6,7,8,9-tetrahydro-5H-1,3,6-triaza-benzocycloheptene], the Ki in assay [1] was 0.5 µM; in assay [2], over 10 µM; in assay [3], over 10 µM; in assay [4] it was 2.29 µM.

On to `C[C@@H]1CCC[C@H](C)N1c1nc2c(c(-c3ccc(Cl)cc3)n1)CCNCC2` [Example 70, 4-(4-chlorophenyl)-2-[(2R,6S)-2,6-dimethyl-1-piperidinyl]-6,7,8,9-tetrahydro-5H-pyrimido[4,5-d]azepine], for which the Ki in assay [1] was found to be 0.054 µM; in assay [2] it was 0.002 µM; in assay [3] it was 0.012 µM; in assay [4], 0.019 µM.

Take `FC1CCN(c2nc3c(c(-c4ccc(Cl)c(Cl)c4)n2)CCNCC3)CC1` [Example 67, 4-(3,4-dichlorophenyl)-2-(4-fluoro-1-piperidinyl)-6,7,8,9-tetrahydro-5H-pyrimido[4,5-d]azepine]: the Ki in assay [4] turned out to be 0.096 µM.

Take `FC1(F)CCN(c2nc3c(c(-c4cnc5ccccc5c4)n2)CCNCC3)CC1` [Example 103, 2-(4,4-difluoro-1-piperidinyl)-6,7,8,9-tetrahydro-4-(3-quinolinyl)-5H-pyrimido[4,5-d]azepine]: in assay [4], the Ki is 0.042 µM.

In the case of `C[C@@H]1CCC[C@H](C)N1c1nc2c(c(-c3ccc4c(c3)OCCO4)n1)CCNCC2` [Example 87, 4-(2,3-dihydro-1,4-benzodioxin-6-yl)-2-[(2R,6S)-2,6-dimethyl-1-piperidinyl]-6,7,8,9-tetrahydro-5H-pyrimido[4,5-d]azepine], the Ki in assay [4] came to 0.082 µM.

For `Cc1ccc(-c2nc(N3CCS(=O)(=O)CC3)nc3c2CCN(C)CC3)cc1` [Example 65, 2-(1,1-Dioxo-1λ^6-thiomorpholin-4-yl)-7-methyl-4-p-tolyl-6,7,8,9-tetrahydro-5H-pyrimido[4,5-d]azepine], the Ki in assay [2] worked out at 0.28 µM; in assay [3] it was 0.96 µM; in assay [4], 0.041 µM.

Regarding `CC(C)c1ccc(-c2nc(N3CCS(=O)(=O)CC3)nc3c2CCNCC3)cc1` [Example 101, 2-(1,1-Dioxo-1λ^6-thiomorpholin-4-yl)-4-(4-isopropyl-phenyl)-6,7,8,9-tetrahydro-5H-pyrimido[4,5-d]azepine], the results for the Ki in assay [2], in assay [3] and in assay [4] were 0.65 µM, 3.78 µM and 0.092 µM, respectively.

For `Cc1ccc(-c2nc(N3CCCCC3)nc3c2CCNCC3)cc1Cl` [Example 75, 4-(3-chloro-4-methylphenyl)-6,7,8,9-tetrahydro-2-(1-piperidinyl)-5H-pyrimido[4,5-d]azepine], the Ki in assay [4] is 0.0859 µM.

Consider `Cc1ccc(-c2nc(N3CCCCC3)nc3c2CCNCC3)cc1` [Example 78, 6,7,8,9-tetrahydro-4-(4-methylphenyl)-2-(1-piperidinyl)-5H-pyrimido[4,5-d]azepine], for which the figures for the Ki in assay [1], in assay [3] and in assay [4] were 0.002 µM, 0.001 µM and 0.014 µM, respectively.

For `CC1CCCN1c1nc2c(c(-c3ccc(Cl)cc3)n1)CNCCC2` (centres unmarked) [Example 53, 4-(4-Chloro-phenyl)-2-(2-methyl-pyrrolidin-1-yl)-6,7,8,9-tetrahydro-5H-1,3,6-triaza-benzocycloheptene], the Ki in assay [1] was 2 µM; in assay [2], 1.2 µM; in assay [3] it was over 10 µM.

Take `Clc1ccc(-c2nc(NCc3ccccc3)nc3c2CNCCC3)cc1` [Example 55, Benzyl-[4-(4-chloro-phenyl)-6,7,8,9-tetrahydro-5H-1,3,6-triaza-benzocyclohepten-2-yl]-amine]: the Ki in assay [1] was 0.05 µM; in assay [2] it was over 10 µM; in assay [3], 1.1 µM.

These data come from patent US8829011B2 (Janssen Pharmaceutica NV, priority 2008, dated 2014).
